The values that follow are results of earlier work, collected in patent US7994210B2, “Method of treating Down Syndrome” (priority 2004, dated 2011).

The target of series [1] is acetylcholinesterase (Homo sapiens, UniProt P22303).
In series [2] the test system is beta-amyloid precursor protein (beta-APP).
Setting [3] is: listed as (+)9-N-phenylcarbinol eseroline.

Read-outs that look alike come from different tables or passages of the source.

Chain of acetylcholinesterase (P22303 32-614, species assumed): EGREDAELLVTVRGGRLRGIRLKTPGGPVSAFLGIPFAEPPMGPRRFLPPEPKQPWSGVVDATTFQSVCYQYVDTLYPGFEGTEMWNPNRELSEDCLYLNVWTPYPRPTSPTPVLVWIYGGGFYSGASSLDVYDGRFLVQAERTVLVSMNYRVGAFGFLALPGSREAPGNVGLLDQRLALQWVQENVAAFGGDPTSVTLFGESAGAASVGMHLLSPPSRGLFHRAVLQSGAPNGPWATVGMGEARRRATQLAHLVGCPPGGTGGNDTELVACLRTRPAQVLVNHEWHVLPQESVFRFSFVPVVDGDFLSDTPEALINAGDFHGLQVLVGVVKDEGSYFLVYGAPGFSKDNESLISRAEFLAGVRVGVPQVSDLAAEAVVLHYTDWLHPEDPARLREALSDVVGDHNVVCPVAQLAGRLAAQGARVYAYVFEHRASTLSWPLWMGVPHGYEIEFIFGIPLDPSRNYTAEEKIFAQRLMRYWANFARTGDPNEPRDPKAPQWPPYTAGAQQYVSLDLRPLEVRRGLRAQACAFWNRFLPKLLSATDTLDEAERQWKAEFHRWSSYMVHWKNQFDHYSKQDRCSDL

`CN1CC[C@]2(C)c3cc(OC(=O)Nc4ccccc4)ccc3N(C)[C@H]12` [(+)-Phenserine, (+)9-N-phenylcarbinol eseroline]: the acetylcholinesterase inhibitor activity entry in series [1] is “lacking significant acetylcholinesterase inhibitor activity”; in series [1] (setting [3]), “lacks anticholinesterase activity”. Also, the “production/formation of β-APP” value in series [2] was “reduces the production of β-APP”; in series [2] (setting [3]), “inhibits β-APP production”.
